# From publication PMC12006171, “Marsupial cathelicidins: characterization, antimicrobial activity and evolution in this unique mammalian lineage” (Frontiers in Immunology, 2025)
# Where two headings read alike, the source gives them in different places.
# Legend:
# [1] = test system: six bacteria (S. aureus, E. coli, P. aeruginosa; ATCC and clinical isolate); assay type: cell-based; settings: synthesized mature peptide
# Method: (§1) Antimicrobial testing of 78 cathelicidin MPs was performed in two phases as outlined in Figure 1 . In phase I, 40 peptides (27 extant and 13 ancestral) were selected for testing based on rank (outlined above) and similarity to published marsupial cathelicidins with known antimicrobial activity ([33], [41]–[43]). These peptides were tested against nine bacteria (Staphylococcus aureus ATCC 29213 and clinical isolate, Escherichia coli ATCC 25922 and clinical isolate, Pseudomonas aeruginosa ATCC 27853 and clinical isolate, Streptococcus agalactiae ATCC 12386 and clinical isolate, Streptococcus pneumoniae ATCC 49619) and three fungi (Candida krusei ATCC 6258, Candida parapsilosis ATCC 22019, and Candida albicans clinical isolate). Details regarding these strains are available in Supplementary Table 4 . The antimicrobial activity of cathelicidins was determined as the minimum inhibitory concentration (MIC), which was the lowest concentration of cathelicidin that prevented visible bacterial or fungal growth, relative to the negative control. […] Minimum bactericidal concentration (MBC) and/or minimum fungicidal concentration (MFC) was conducted to determine microbicidal versus static action. Activity against S. aureus ATCC, E. coli ATCC, and Pseudomonas aeruginosa ATCC 27853 was examined in the presence of divalent cations to determine the impact of inhibitors.
# In phase II, the remaining 38 peptides (37 extant and one ancestral) were tested against six bacteria (S. aureus ATCC and clinical isolate, E. coli ATCC and clinical isolate, and P. aeruginosa ATCC and clinical isolate). […] No further testing on phase II peptides was performed. Detailed methods for all assays are provided in subsequent sections.
# (§2) Antimicrobial activity was determined using a broth microdilution susceptibility assay in 96 well polypropylene plates according to Clinical Laboratory Standards Institute guidelines M07-A and M26A as described previously ([33], [42], [43]). The bacterial and fungal isolates from humans and animals used in this study are outlined in Supplementary Table 4 . Only yeasts were included in the panel of fungi as they have been used in the susceptibility testing of eutherian ([3], [81]–[83]) and other marsupial cathelicidins previously ([33], [42], [43]). Cathelicidin mature peptides were solubilized in DMSO and serially diluted in duplicate from 128-0.25μg/mL in a final volume of 100µL. For bacteria, cathelicidins were diluted in Mueller Hinton Broth (MHB) with or without 10% lysed horse blood, and with (MH II B) or without (MHB) calcium and magnesium cations. For fungi, cathelicidins were diluted in Roswell Park Memorial Institute medium (RPMI)-1640 MOPS. Ampicillin or tetracycline were included as a positive control for Gram-positive and -negative bacteria respectively, while amphotericin B was used for fungi. A media-only negative control and growth control (no cathelicidin) were also included on each plate. Bacteria were sub-cultured on Muller Hinton agar (MHA) or sheep blood agar (BA), and fungi on Sabouraud dextrose agar (SAB), 20–24 hours prior to the test. Colonies were suspended in saline, the concentration adjusted to a 0.5 McFarland standard, and then diluted in media to a concentration of 1.0 x 10^6 cells/mL. Then, 100μL was added to each well of the cathelicidin dilution plate, giving a final inoculum density of 5 x 10^5 CFU/mL and cathelicidin concentration of 64-0.125μg/mL. Colony counts were performed on MHA/BA/SAB to confirm inoculum density. All plates were incubated at 35°C for 20–24 hours, depending on the strain.
# (§3) Colonies were counted and compared to the colony count of the starting inoculum.
# [2] = test system: three fungi (Candida krusei, Candida parapsilosis, Candida albicans); assay: Antifungal screening, summary over the panel of fungi (broth microdilution); assay type: cell-based
# Method: as §1, §2, §3
# [3] = antimicrobial screening Phase I, Y/N summary over bacteria tested, broth microdilution
# [4] = synthesized mature peptide, antimicrobial screening Phase I, Y/N summary over fungi tested, broth microdilution
# [5] = broth microdilution screening, phase I or II, Y/N summary over the bacteria tested
# [6] = broth microdilution screening, phase I, Y/N summary over the fungi tested, synthesized mature peptide
Sequence,"Antibacterial (MIC <64ug/mL) [1, 3]","Antifungal (MIC <64ug/mL) [2, 4]","Antibacterial (MIC <64ug/mL) [1, 5]","Antifungal (MIC <64ug/mL) [2, 6]","Antifungal (MIC <64ug/mL) ([2]; Y/N summary over the fungi screened, broth microdilution, NT = not tested)"
"PKRKKGSKKRRFRPGGYTLIALGKPRVQKAPYMEAL [MAP3, marsupial ancestral peptide, likely linear, rich in arginine (32.2%) and proline (25.8%)]",N (Antibacterial (MIC <64ug/mL)),N (Antifungal (MIC <64ug/mL)),–,–,–
KVKRGLWEDLKRKATKFGDDIRNTLRNVKIKFPVPHLG [MagiCath9],–,–,N (Antibacterial (MIC <64ug/mL)),N (Antifungal (MIC <64ug/mL)),–
"PGKRRGKLIKKGGKGVKRLLPKNGIIILPPG [MAP5, marsupial ancestral peptide, predicted by ANCESCON and GASP, synthesized]",N (Antibacterial (MIC <64ug/mL)),N (Antifungal (MIC <64ug/mL)),–,–,–
PELLRSRRSPLPRRKKGSKKNSYKTGGYSVIALGKSNVHKAPYMEAL [TrvuCath1],–,–,N (Antibacterial (MIC <64ug/mL)),N (Antifungal (MIC <64ug/mL)),–
SRGLRKKLKKLGKSIKKRLKNIKIGYSIPFPG [PspeCath1p],–,–,–,–,Y (Antifungal (MIC <64ug/mL))
